Measurements from PMC6722883 (FEBS Open Bio, 2019).

Tests used:
[1] = target: T1, α3β4 nAChR expressed in Xenopus oocytes (Rattus norvegicus, UniProt P04757+P12392); assay: cell-based; type: cell-based
T1 construct: expressed in transfected cells; host or cells: Xenopus oocytes injected with cRNA

[2] = buffer or solvent
[3] = target: human serum albumin (HSA) (Homo sapiens, UniProt P02768); details: pH 7.2
[4] = pH 3
physchem [5] = details: not applicable
physchem [6] = details: buffer or solvent

T1 sequence (P04757 26-499 limits assumed): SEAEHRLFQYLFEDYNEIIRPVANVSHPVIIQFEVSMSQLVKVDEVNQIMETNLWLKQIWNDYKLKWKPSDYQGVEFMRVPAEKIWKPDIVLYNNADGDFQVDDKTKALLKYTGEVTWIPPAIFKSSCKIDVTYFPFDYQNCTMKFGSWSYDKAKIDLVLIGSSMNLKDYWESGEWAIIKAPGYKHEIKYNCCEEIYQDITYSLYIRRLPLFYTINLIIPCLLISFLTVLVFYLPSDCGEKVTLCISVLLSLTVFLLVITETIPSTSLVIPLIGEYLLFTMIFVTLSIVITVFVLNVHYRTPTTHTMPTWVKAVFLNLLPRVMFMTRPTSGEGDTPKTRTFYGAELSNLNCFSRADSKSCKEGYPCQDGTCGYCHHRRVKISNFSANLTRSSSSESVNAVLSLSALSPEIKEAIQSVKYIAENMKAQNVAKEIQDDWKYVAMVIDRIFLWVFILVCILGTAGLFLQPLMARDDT
T1 sequence (P12392 21-495 limits assumed): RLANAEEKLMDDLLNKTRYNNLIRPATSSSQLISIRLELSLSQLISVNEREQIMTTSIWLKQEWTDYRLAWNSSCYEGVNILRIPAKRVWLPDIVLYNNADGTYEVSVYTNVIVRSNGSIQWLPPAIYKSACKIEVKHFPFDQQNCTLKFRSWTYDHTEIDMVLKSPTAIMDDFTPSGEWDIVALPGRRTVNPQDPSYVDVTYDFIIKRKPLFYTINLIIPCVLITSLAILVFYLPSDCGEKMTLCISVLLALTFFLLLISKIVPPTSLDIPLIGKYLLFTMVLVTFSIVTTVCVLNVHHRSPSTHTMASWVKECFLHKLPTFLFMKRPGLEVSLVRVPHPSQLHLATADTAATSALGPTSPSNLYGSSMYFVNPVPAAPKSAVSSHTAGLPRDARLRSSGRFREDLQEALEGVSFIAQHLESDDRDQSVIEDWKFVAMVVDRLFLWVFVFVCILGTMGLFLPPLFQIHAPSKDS
Sequence of human serum albumin (HSA) (P02768 25-609 limits assumed): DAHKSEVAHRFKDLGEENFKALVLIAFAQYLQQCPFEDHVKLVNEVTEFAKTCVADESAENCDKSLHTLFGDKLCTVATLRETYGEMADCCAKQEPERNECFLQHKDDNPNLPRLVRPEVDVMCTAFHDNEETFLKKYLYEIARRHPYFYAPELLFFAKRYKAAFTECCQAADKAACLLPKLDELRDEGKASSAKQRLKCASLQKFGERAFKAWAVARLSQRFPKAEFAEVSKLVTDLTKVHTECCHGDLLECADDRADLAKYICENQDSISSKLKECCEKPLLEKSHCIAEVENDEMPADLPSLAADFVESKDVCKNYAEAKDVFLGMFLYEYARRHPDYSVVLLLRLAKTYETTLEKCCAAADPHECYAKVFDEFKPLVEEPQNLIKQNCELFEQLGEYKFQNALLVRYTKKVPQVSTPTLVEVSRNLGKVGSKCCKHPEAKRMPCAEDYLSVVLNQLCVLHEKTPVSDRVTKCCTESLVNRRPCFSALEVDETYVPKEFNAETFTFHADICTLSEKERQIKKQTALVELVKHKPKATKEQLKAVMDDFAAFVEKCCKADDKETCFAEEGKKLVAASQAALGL

Compound	Hill slope [1]	IC50 [1]	Response at 100 nM [1]	remaining at 8 h [2]	Globular isomer remaining, % of the total [3]	Degradation rate constant K obs (50 °C) [4]	Degradation rate constant K obs (60 °C) [4]	Degradation rate constant K obs (70 °C) [4]	Degradation rate constant K obs (80 °C) [4]	E a, activation energy [4]	t0.5, half-life period at 25 °C [4]	t0.9, validity period at 25 °C [4]	remaining at 168 h (physchem [5])	remaining at 1 min (physchem [6])	remaining at 16 h (physchem [6])
CC[C@H](C)[C@@H]1NC(=O)[C@@H]2CCCN2C(=O)[C@H](CO)NC(=O)[C@H](CC[S+](C)[O-])NC(=O)[C@H](C)NC(=O)[C@H](CO)NC(=O)[C@@H]2CSSC[C@H](NC(=O)CN)C(=O)N[C@@H](CSSC[C@@H](C(N)=O)NC1=O)C(=O)N[C@@H](CO)C(=O)N[C@@H](Cc1c[nH]cn1)C(=O)N1CCC[C@H]1C(=O)N[C@@H](C(C)C)C(=O)N2 (stereo partly shown) [Product I]	0.76 (0.65–0.86)	503 nM	15%												
CC[C@H](C)[C@@H]1NC(=O)[C@@H]2CCCN2C(=O)[C@H](CO)NC(=O)[C@H](CCSC)NC(=O)[C@H](C)NC(=O)[C@H](CO)NC(=O)[C@@H]2CSSC[C@H](NC(=O)CN)C(=O)N[C@@H](CSSC[C@@H](C(N)=O)NC1=O)C(=O)N[C@@H](CO)C(=O)N[C@@H](Cc1cnc[nH]1)C(=O)N1CCC[C@H]1C(=O)N[C@@H](C(C)C)C(=O)N2 [TxID, α‐Conotoxin TxID]	1.17 (0.87–1.46)			36%	75%	1.01 × 10^−3 1/Mh	2.42 × 10^−3 1/Mh	5.54 × 10^−3 1/Mh	2.02 × 10^−2 1/Mh	27.9842 kcal/mol	707 days	107 days	95%	71%	63%
